Data on 3 compounds can be found in US20100028259A1, “USE OF ORGANIC CATION TRANSPORTERS FOR CANCER DIAGNOSIS AND THERAPY” (The Regents of the University of California, priority 2006, published 2010).

One data set has as its system HEK-hOCT2 cells. The data set can be described thus: MTT drug sensitivity assay in HEK-hOCT2 cells. As to conditions: same test conditions as oxaliplatin MTT assay in HEK cells. It is filed as cell-based, human. The method, then:
(§1) Cytotoxicity of the platinum-based compounds was measured by MTT (thiazolyl blue tetrazolium bromide) assay. Cells were seeded in 100 μl of the culture medium without any antibiotics in 96-well plates at a predetermined cell density. For HEK 293 cells, poly-D-lysine coated plates were used. […] For the OCT inhibitor studies, the inhibitors (i.e., disopyramide or cimetidine) were added to the medium at a specified concentration immediately before the addition of the platinum-based compounds. After incubation for a specified time period, the drug-containing medium was replaced with fresh, drug-free medium and the incubation was continued for a total of 72 hours (start from the addition of platinum-based compounds). Then, the MTT assay was performed similarly as described in Alley et al., Cancer Res., 48:589-601 (1988). […] The maximal cell growth was the cell growth in the medium without any platinum-based compounds; C is the concentration of the platinum-based compound, and γ is the slope factor.
(§2) Briefly, the cells were seeded in 96-well plates at a density of 5,000 cells/well for the transfected MDCK cells or 12,000 cells/well for the transfected HEK 293 cells. The platinum-based drugs were added on the following day. After the specified time periods of drug exposure, the drug-containing medium was replaced with fresh, drug-free medium, and the incubation was continued for a total of 72 hours (start from the time when the drug was added). After incubation, the cell growth was determined by an MTT assay. Data are expressed as mean±SD from 3 to 6 independent experiments with each performed in quadruplicate. The resistance factor (RF) was defined as the ratio of the mean IC50 value in the MOCK cells to that in the OCT-transfected cells.
(In general: Tetrazolium assays rely on reduction of a dye to a coloured formazan, in cell work by metabolically active cells.)

Another data set deals with human OCT2 (Homo sapiens, UniProt O15244). As to conditions: inhibitor 1.5 mM. The method, then:
(§3) (A) The expression of human OCT1, OCT2, or OCT3 was determined in the cell lines stably transfected with human OCTs (MDCK-hOCT1, HEK-hOCT2, or HEK-hOCT3) or the corresponding empty vectors (MOCK cells) by RT-PCR as described in Example 1. The dog and human GAPDH were used as the expression control for the transfected MDCK and HEK 293 cells, respectively. Lanes 1-6: MDCK-MOCK, MDCK-hOCT1, HEK-MOCK, HEK-hOCT2, HEK-MOCK, and HEK-hOCT3. (B) The cellular uptake of model substrates (TEA for human OCT1 and OCT2; MPP^+ for human OCT3) was determined in OCT-transfected cells (solid bars) and in the corresponding MOCK cells (open bars). Disopyramide (120 μM) was used as an inhibitor for human OCT1 and cimetidine (1.5 mM) was used as an inhibitor for human OCT2 and OCT3. Data are expressed as mean±SD of six measurements.
(§4) MDCK or HEK 293 cells were grown in 24-well plates to >90% confluence in the culture medium without any antibiotics. The poly-D-lysine coated plates were used for HEK 293 cells. The cells were washed with 1×PBS first and then incubated in the uptake buffer (1×PBS) containing 10 μM ^14C-TEA or 2 μM ^3H-MPP^+ as specified. For the OCT inhibitor studies, the indicated OCT inhibitor (i.e., disopyramide or cimetidine) was added to the uptake buffer at specified concentration together with the radioactive substrate. […]

The next data set addresses human OCT3 (Homo sapiens, UniProt O75751). The following applies: inhibitor 1.5 mM. The method, then:
as §3, §4

The test system of data set [1] is MDCK-hOCT1 cells. The data set can be described thus: Platinum-DNA adduct formation in MDCK-hOCT1 cells. It is filed as cell-based, canine. As to conditions: 1 μM, PB—SO4, 25 min. On the procedure: (§5) After incubation at 37° C. and 5% CO2 for 2 hours, the cells were washed with ice-cold PBS three times and harvested. The genomic DNA was isolated from the cells and the platinum content associated with DNA was determined by ICP-MS and normalized for DNA content. Data are expressed as mean±SD from a typical experiment performed in triplicate. Two independent experiments were conducted and similar results were obtained.
(§6) After incubation, the cells were washed with ice-cold PBS three times and harvested. Genomic DNA was isolated from the harvested cells and the DNA-associated platinum content was determined by ICP-MS and normalized for the DNA content. Data are expressed as mean±SD of three measurements.
(§7) The platinum content associated with genomic DNA was determined as described in Samimi et al., Clin. Cancer Res., 10:4661-4669 (2004) with some modifications. Briefly, the cells were grown in 100 mm×20 mm dishes in the culture medium without any antibiotics to over 90% confluence. For HEK 293 cells, poly-D-lysine coated dishes were used. Then, the cells were incubated in the culture medium containing the specified concentrations of the platinum-based compounds at 37° C. in 5% CO2 for 2 hours (or 25 min as specified). In some experiments, phosphate buffer (PB: 1.06 mM KH2PO4, 2.97 mM Na2HPO4, pH 7.4) containing 155 mM NaCl (PB—Cl buffer) or 103 mM Na2SO4 (PB—SO4 buffer) was used instead of the culture medium as specified. For the OCT inhibitor study, the incubation medium (buffer) also contained disopyramide or cimetidine). If PB—Cl or PB—SO4 buffer was used, the cells were washed with the same buffer once before drug incubation. After incubation, the cells were washed with ice-cold PBS, scraped, and pelleted. Genomic DNA was isolated from the cell pellets using the Wizard® Genomic DNA Purification Kit (Promega, Madison, Wis.) following the manufacturer's instructions. Briefly, the cells were lysed with Nuclei Lysis Solution. After RNA digestion and protein precipitation, the lysates were centrifuged and the resulting supernatant was aliquoted. The genomic DNA prepared from two different aliquots of the supernatant was used for platinum and DNA content determination, respectively. For the determination of platinum, the DNA samples were treated with 70% nitric acid at 65° C. and diluted in the same way as described above. The platinum content was analyzed using ICP-MS and the DNA content was measured by absorption spectroscopy.

In the next data set the test system is MDCK-MOCK cells. The data set can be described thus: Platinum-DNA adduct formation in MDCK-MOCK cells. It is filed as cell-based, canine. As to conditions: 1 μM, PB—SO4, 25 min. On the procedure: as §5, §6, §7
Data set [2] in a line: pKa values and species distribution of aquated oxaliplatin in incubation buffer. It is filed as physicochemical. The following applies: PB—SO4 buffer, pH 7.4, calculated from pKa values.
The subject of data set [3] is MDCK-hOCT1 cells. The data set can be described thus: MTT drug sensitivity assay in MDCK-hOCT1 cells. Format: cell-based, canine. The following applies: same test conditions as oxaliplatin MTT assay in MDCK cells. The method, then:
as §1, §2
Briefly, MDCK cells were seeded at a density of 5,000 cells/well in 96-well plates and exposed to the test compounds for 7 hours on the following day. After incubation for a total of 72 hours, the cell growth was determined by an MTT assay. The data for carboplatin was taken from Table 1 and was not determined simultaneously with the other compounds. The resistance factor (RF) was defined as the ratio of the mean IC50 value in MDCK-MOCK cells to that in MDCK-hOCT1 cells. Data are expressed as mean±SD from six measurements, and each measurement was performed in quadruplicate.

Another data set concerns the target T1, human OCT1 (Homo sapiens, UniProt O15245).
T1 construct: stably transfected with the full length human OCT1 cDNA (MDCK-hOCT1); expressed in transfected cells
T1 sequence (O15245 1-554): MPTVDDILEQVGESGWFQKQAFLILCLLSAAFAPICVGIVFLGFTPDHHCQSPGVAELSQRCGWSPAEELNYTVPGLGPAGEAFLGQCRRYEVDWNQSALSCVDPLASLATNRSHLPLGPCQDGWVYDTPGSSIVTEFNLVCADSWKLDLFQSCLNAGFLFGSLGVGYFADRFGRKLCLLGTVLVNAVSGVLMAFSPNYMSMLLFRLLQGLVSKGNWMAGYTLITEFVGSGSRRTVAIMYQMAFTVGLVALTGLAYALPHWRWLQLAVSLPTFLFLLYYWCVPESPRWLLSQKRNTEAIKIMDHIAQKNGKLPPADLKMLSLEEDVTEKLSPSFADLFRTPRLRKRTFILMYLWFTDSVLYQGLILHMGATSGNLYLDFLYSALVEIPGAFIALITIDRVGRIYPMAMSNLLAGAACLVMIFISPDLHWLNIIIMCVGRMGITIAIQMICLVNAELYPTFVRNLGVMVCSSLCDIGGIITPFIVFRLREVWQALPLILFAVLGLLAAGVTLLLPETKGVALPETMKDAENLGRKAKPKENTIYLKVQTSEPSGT
The data set can be described thus: Cellular uptake of TEA in MDCK-hOCT1 cells, OCT inhibitor. As to conditions: inhibitor 120 μM. It is filed as cell-based, canine. The method, then:
as §3, §4

The structures appear in SMILES notation.

Chain of human OCT3 (O75751 whole entry): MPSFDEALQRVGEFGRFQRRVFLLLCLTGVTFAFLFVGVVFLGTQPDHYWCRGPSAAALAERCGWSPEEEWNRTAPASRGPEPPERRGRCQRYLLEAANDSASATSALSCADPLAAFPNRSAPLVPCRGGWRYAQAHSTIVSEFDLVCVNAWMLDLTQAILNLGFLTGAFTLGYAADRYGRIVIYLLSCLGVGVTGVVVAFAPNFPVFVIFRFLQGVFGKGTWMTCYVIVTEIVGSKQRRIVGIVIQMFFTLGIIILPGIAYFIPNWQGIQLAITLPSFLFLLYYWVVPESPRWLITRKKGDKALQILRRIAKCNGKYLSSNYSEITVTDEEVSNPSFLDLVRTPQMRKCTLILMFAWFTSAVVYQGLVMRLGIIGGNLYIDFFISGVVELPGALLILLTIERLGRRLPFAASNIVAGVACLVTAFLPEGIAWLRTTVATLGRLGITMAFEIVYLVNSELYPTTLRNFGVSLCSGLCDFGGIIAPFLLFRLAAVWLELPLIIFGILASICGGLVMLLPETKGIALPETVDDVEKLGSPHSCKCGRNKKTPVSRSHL
Chain of human OCT2 (O15244 whole entry): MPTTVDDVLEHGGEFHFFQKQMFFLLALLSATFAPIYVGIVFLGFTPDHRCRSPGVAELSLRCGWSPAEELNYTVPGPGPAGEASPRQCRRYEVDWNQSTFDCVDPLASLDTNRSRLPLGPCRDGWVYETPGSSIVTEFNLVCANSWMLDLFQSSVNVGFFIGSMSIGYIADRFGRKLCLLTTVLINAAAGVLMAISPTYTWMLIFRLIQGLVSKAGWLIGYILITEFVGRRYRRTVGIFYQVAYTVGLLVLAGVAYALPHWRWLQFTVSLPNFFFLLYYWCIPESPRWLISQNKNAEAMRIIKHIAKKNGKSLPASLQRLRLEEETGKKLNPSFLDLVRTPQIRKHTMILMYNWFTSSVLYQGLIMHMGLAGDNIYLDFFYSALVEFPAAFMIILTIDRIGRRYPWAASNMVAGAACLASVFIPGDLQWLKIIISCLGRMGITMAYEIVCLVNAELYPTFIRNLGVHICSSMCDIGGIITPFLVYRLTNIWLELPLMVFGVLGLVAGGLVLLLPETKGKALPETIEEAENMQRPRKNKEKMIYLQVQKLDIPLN

Take `CN/C(=N/CCSCc1nc[nH]c1C)NC#N` [cimetidine]: the “cytotoxicity of the OCT inhibitor itself (no cytotoxicity up to a concentration of)” value in the data set on HEK-hOCT2 cells was over 5 mM. In addition, on human OCT2, the “effect on uptake of TEA in HEK-hOCT2” value was “substantially decreased”. The “effect on uptake of MPP+ in HEK-hOCT3” value at human OCT3 is recorded as “substantially decreased”.

For the compound `NC1CCCCC1N.O.O.[Pt+2]` [[Pt(R,R-DACH)(H2O)2]^2+], in the data set on MDCK-hOCT1 cells [1], the “DNA-associated platinum level in MDCK-hOCT1” value amounted to 0.0139±0.0020 pmol/μg DNA and the “rb in MDCK-hOCT1” value is recorded as 4.59±0.66×10^−6. For the same compound, in the data set on MDCK-MOCK cells, the “DNA-associated platinum level in MDCK-MOCK” value is given as 0.0142±0.0028 pmol/μg DNA and the “rb in MDCK-MOCK” value is 4.69±0.92×10^−6. In data set [2], the “percentage of aqua/hydroxo species” value was 17.1% and the “percentage of diaqua species” value is 82.8%.

Regarding `CC(C)N(CCC(C(N)=O)(c1ccccc1)c1ccccn1)C(C)C` (centres unmarked) [disopyramide], in the data set on MDCK-hOCT1 cells [3], the “cytotoxicity of the OCT inhibitor itself (no cytotoxicity up to a concentration of)” value was over 400 µM. Further, at human OCT1, the “effect on uptake of TEA in MDCK-hOCT1” value is on record as “substantially decreased”.
